T1: BP0403 (Bordetella pertussis, UniProt Q7VSK8, Y219A)
T1 sequence (Q7VSK8 208-503 Y219A): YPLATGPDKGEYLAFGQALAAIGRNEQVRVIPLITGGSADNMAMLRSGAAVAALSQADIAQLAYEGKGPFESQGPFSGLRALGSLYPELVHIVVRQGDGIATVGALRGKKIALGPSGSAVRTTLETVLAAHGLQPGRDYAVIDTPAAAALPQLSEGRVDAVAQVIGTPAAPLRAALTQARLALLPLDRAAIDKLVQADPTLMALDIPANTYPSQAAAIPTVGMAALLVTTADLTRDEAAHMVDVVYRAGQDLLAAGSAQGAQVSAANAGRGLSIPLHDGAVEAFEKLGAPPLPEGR

T2: BP0403 (Bordetella pertussis, UniProt Q7VSK8, Q263A)
T2 sequence (Q7VSK8 208-503 Q263A): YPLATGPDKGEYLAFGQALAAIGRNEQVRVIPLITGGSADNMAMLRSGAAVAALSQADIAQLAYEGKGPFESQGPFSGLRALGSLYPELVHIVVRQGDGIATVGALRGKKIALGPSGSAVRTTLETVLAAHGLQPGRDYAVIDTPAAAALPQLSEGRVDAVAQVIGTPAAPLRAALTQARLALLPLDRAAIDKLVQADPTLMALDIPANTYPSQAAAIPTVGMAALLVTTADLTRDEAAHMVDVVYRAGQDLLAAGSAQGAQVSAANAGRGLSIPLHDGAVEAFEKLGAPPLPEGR


Assays:
BP0403 [1] = target: T1, BP0403; assay: intrinsic tyrosine fluorescence titration; assay type: binding
BP0403 [2] = target: T3, BP0403 (Bordetella pertussis, UniProt Q7VSK8); assay: intrinsic tyrosine fluorescence titration (n = […]); DSF shift on full-length protein and SBP domain; assay type: binding
T3 construct: BP0403SBP (residues 208–503), isolated C-terminal SBP domain; full-length BP0403FL (without signal peptide) also shifted in DSF

BP0403 [3] = target: T2, BP0403; assay: intrinsic tyrosine fluorescence titration; assay type: binding
[4] = target: the molecule itself; assay: SEC; Superdex 200 Increase 10/300 GL, 0.5 ml/min, SEC buffer (50 mM Tris-HCl pH 8, 100 mM NaCl, 5% glycerol); IMAC eluate incubated 20 min at room temperature with 5 mM EDTA and 100 mM glycerol before loading; elution volume compared with a calibration curve of molecular weight standards

Molecule	Kd (BP0403 [1]) [µM]	Kd (BP0403 [2]) [µM]	Kd (BP0403 [3]) [µM]	stoichiometry N [4]
N[C@@H](CCC(=O)O)C(=O)O [L-glutamate]	31 ± 6	0.18 ± 0.032	45 ± 3	
full-length BP0403 (BP0403FL) (natural protein, Bordetella pertussis, UniProt Q7VSK8 20-503, looked up, Codon optimised synthetic gene; also called BP0403 wildtype; source: E. coli BL21 (DE3), pET151, purified (Ni-NTA, SEC)) SRAPDTEILQRDVGQTLAATYGPDLFDIVALRRMGSATDSTAPPGQTRRVVYYDVVLGLKKDLTLGAWDQPGAAALVSLLGAGPRSISGVKSSGNAAGDQIVAHASAIYQRDAEQWVHVAPASFTATEAPSLDTGAPPPVTRQLLQTLEQITRSVPYSASSTAQHVVQQELERSVARINGRLARLQKGYPLATGPDKGEYLAFGQALAAIGRNEQVRVIPLITGGSADNMAMLRSGAAVAALSQADIAQLAYEGKGPFESQGPFSGLRALGSLYPELVHIVVRQGDGIATVGALRGKKIALGPSGSAVRTTLETVLAAHGLQPGRDYAVIDTPAAAALPQLSEGRVDAVAQVIGTPAAPLRAALTQARLALLPLDRAAIDKLVQADPTLMALDIPANTYPSQAAAIPTVGMAALLVTTADLTRDEAAHMVDVVYRAGQDLLAAGSAQGAQVSAANAGRGLSIPLHDGAVEAFEKLGAPPLPEGR				2
